According to patent US11795151B2, “Benzotriazole compound” (MIYOSHI OIL & FAT CO., LTD., priority 2017, dated 2023):

Columns and labels:
Format in all cases: physicochemical
[1] = Evaluation of UV absorption performance (2): absorbance spectra in chloroform; details: 100 μM, 10-mm quartz cell
Procedure: Compounds 11 to 28 were diluted with 100 μM of chloroform and placed in a 10-mm quartz cell, and the absorbance spectra were measured using an ultraviolet-visible spectrophotometer (V-550, manufactured by JASCO Corporation)(FIGS. 11,12,14 to 29).
The absorption peak (maximum absorption wavelength: max) and absorbance in the wavelength range of 350 to 390 nm were read from the absorption spectra of Compounds 11 to 28, and a molar extinction coefficient (maximum molar extinction coefficient: εmax) of the peak was obtained by the following formula (Table 7): Molar extinction coefficient:εmax(L/(mol·cm))=A:Absorbance/[c:Mol concentration(mol/L)×1:Cell optical length(cm)] [Equation 3]
In addition, from the absorption spectra of Compounds 11 to 28, assuming that an intersection of a long-wavelength side absorption spectrum in the absorption peak at 350 to 390 nm and a baseline (a line where the slope of the absorption spectrum at […] is zero) is set as a peak end (for example: FIG. 1), the absolute value of the slope of the absorption peak on the long-wavelength side in the wavelength region at 350 to 390 nm was obtained by the following equation (Table 8): |Slope of absorption peak on long wavelength side in wavelength region of 350 to 390n|=|(Absorbance at peak end−Absorbance at absorption peak in wavelength region of 350 to 390 nm)/(Absorption wavelength at peak end−Wave length at absorption peak in wavelength region of 350 to 390 nm)| [Equation 4]

[2] = Evaluation of UV absorption performance (1): absorbance spectra in chloroform; details: 100 μM, 10-mm quartz cell
Procedure: Compounds 1 to 12 were diluted with 100 μM of chloroform, placed in a 10-mm quartz cell, and the absorbance spectra were measured using an ultraviolet-visible spectrophotometer (V-550, manufactured by JASCO Corporation)(FIGS. 1 to 12).
The absorption peak (maximum absorption wavelength: λmax) and absorbance in the wavelength range of 350 to 390 nm were read from the absorption spectra of Compounds 1 to 12, and the molar extinction coefficient of the peak (maximum molar extinction coefficient: εmax) was obtained by the following equation (able 1). Molar extinction coefficient:εmax(L/(mol·cm))=A:Absorbance/[c:Mol concentration(mol/L)×1:Cell optical length(cm)] [Equation 1]
In addition, from the absorption spectra of Compounds 1 to 12, assuming that an intersection of a long-wavelength side absorption spectrum in the absorption peak at 350 to 390 nm and a baseline (a line where the slope of the absorption spectrum at 380 to 500 nm is zero) is set as a […] (for example: FIG. 1), the absolute value of the slope of the absorption peak on the long-wavelength side in the wavelength region at 350 to 390 nm was obtained by the following equation: |Slope of absorption peak on long wavelength side in wavelength region of 350 to 390 nm|=|(Absorbance at peak end−Absorbance at absorption peak in wavelength region of 350 to 390 nm)/(Absorption wavelength at peak end−Wave length at absorption peak in wavelength region of 350 to 390 nm)| [Equation 2]

[3] = Maximum solubility in various monomers; details: room temperature (20 to 30° C.), 4 hours

Absorbance at absoprtion peak in wavelength region of 350 to 390 nm [1]	Absorbance at peak end [1]	Absorption wavelength at peak end [1] [nm]	Molar extinction coefficient at peak (maximum molar extinction coefficient: εmax) [1] [L/mol/cm]	Wave length at absorption peak in wavelength region of 350 to 390 nm (maximum absorption wavelength: λmax) [1] [nm]	Absorbance at absorption peak in wavelength region of 350 to 390 nm [2]	Absorbance at peak end [2]	Absorption wavelength at peak end [2] [nm]	Molar extinction coefficient at peak (maximum molar extinction coefficient: εmax) [2] [L/mol/cm]	Wave length at absorption peak in wavelength region of 350 to 390 nm (maximum absorption wavelength: λmax) [2] [nm]	Maximum solubility ([3]; Dimethylacrylamide) [wt %]	Maximum solubility ([3]; Hexadiene) [wt %]	Maximum solubility ([3]; Methyl (meth)acrylate) [wt %]	Maximum solubility ([3]; Styrene) [wt %]	Maximum solubility ([3]; Vinyl acetate) [wt %]	SMILES
2.29	0.02244	422	22900	366											Cc1cc(-n2nc3ccc(Sc4ccc(OC(=O)c5ccccc5)cc4)cc3n2)c(O)c(C(C)(C)C)c1 [Compound 19]
2.21	0.02594	419	22100	365											Cc1cc(-n2nc3ccc(SCCOC(=O)c4ccccc4)cc3n2)c(O)c(C(C)(C)C)c1 [Compound 14]
2.22	0.02575	420	22200	366											CCCCCCCCCCCCCCCCCC(=O)Oc1ccc(Sc2ccc3nn(-c4cc(C)cc(C(C)(C)C)c4O)nc3c2)cc1 [Compound 18]
2.22	0.01846	420	22200	367											CCCCCCCCCCCCCCCCCC(=O)OCCCCCCSc1ccc2nn(-c3cc(C)cc(C(C)(C)C)c3O)nc2c1 [Compound 16]
2.24	0.00955	424	22400	369											CC(=O)Nc1ccc(Sc2ccc3nn(-c4cc(C)cc(C(C)(C)C)c4O)nc3c2)cc1 [Compound 21]
					2.14	0.00702	422	21100	368						CCCCCCCCCCCCC/C=C/C(=O)OCCCCCCSc1ccc2nn(-c3cc(C)cc(C(C)(C)C)c3O)nc2c1 [Compound 9]
2.27	0.0174	424	22700	370											CCNC(=O)Nc1ccc(Sc2ccc3nn(-c4cc(C)cc(C(C)(C)C)c4O)nc3c2)cc1 [Compound 25]
2.26	0.01853	423	22600	370											COc1ccc(NC(=O)Nc2ccc(Sc3ccc4nn(-c5cc(C)cc(C(C)(C)C)c5O)nc4c3)cc2)cc1 [Compound 28]
2.23	0.01382	424	22300	369											CCCCCCCCCCCCCCCCCC(=O)Nc1ccc(Sc2ccc3nn(-c4cc(C)cc(C(C)(C)C)c4O)nc3c2)cc1 [Compound 22]
2.36	0.02	424	23600	368											Cc1cc(-n2nc3ccc(Sc4ccc(NC(=O)c5ccc6ccccc6c5)cc4)cc3n2)c(O)c(C(C)(C)C)c1 [Compound 24]
2.20	0.00489	423	22000	368											CCCCCCCCCCCCCCCCCCNC(=O)OCCCCCCSc1ccc2nn(-c3cc(C)cc(C(C)(C)C)c3O)nc2c1 [Compound 20]
2.39	0.01868	425	23900	369											Cc1cc(-n2nc3ccc(Sc4ccc(NC(=O)Nc5ccccc5)cc4)cc3n2)c(O)c(C(C)(C)C)c1 [Compound 27]
2.22	0.0302	419	22200	365											CC(=O)OCCSc1ccc2nn(-c3cc(C)cc(C(C)(C)C)c3O)nc2c1 [Compound 13]
2.24	0.01899	422	22400	366											CC(=O)Oc1ccc(Sc2ccc3nn(-c4cc(C)cc(C(C)(C)C)c4O)nc3c2)cc1 [Compound 17]
2.17	0.1501	419	21700	368											CCCCCCCCCCCCCCCCCCNC(=O)Nc1ccc(Sc2ccc3nn(-c4cc(C)cc(C(C)(C)C)c4O)nc3c2)cc1 [Compound 26]
					2.29	0.01022	422	21800	367	15	5	15	25	13	C=C(C)C(=O)Oc1ccc(Sc2ccc3nn(-c4cc(C)cc(C(C)(C)C)c4O)nc3c2)cc1 [Compound 5]
2.34	0.01418	424	23400	369											Cc1cc(-n2nc3ccc(Sc4ccc(NC(=O)c5ccccc5)cc4)cc3n2)c(O)c(C(C)(C)C)c1 [Compound 23]
					2.27	0.01184	424	21600	369	15	10	20	25	15	C=C(C)C(=O)OCCCCCCOc1ccc(Sc2ccc3nn(-c4cc(C)cc(C(C)(C)C)c4O)nc3c2)cc1 [Compound 6]
